{"source": "paper PMC6934184", "about": "“Selective DNA-PKcs inhibition extends the therapeutic index of localized radiotherapy and chemotherapy” (The Journal of Clinical Investigation, 2019)", "target": "T1, DCAMKL2 (DCK2) (Homo sapiens, UniProt Q8N568)", "T1 construct": "purchased Thermo Fisher Scientific (Life Technologies) SelectScreen", "T1 sequence (Q8N568 whole entry)": "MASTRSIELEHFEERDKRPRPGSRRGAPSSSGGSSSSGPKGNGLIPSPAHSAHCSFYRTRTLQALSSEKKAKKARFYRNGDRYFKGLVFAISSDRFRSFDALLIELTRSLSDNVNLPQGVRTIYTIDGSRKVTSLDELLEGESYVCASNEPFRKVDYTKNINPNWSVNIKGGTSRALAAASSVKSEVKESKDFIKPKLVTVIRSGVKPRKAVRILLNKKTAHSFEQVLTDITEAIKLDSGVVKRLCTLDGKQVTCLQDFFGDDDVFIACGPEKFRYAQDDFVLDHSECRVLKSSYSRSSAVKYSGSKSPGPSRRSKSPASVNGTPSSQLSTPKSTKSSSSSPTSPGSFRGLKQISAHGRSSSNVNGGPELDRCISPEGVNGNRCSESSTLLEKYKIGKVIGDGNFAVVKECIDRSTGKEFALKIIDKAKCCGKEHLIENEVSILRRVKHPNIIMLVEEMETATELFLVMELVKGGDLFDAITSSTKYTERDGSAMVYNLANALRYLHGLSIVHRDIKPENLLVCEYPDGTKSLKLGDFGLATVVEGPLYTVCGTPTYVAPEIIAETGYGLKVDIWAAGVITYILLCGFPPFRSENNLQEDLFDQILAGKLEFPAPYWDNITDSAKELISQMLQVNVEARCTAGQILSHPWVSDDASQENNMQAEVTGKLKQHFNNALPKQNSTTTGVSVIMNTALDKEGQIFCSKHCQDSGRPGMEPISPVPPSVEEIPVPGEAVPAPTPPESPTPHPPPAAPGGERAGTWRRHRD", "assay": "SelectScreen Z'LYTE", "assay_type": "biochemical", "procedure,_shortened": "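Percent values come from Thermo SelectScreen profiling of NU5455, combining activity and binding assays. CSF1R was run in Z'LYTE format at Km app ATP, and CAMK1 in Adapta format with ATP listed at 10.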"}
{"smiles": "CN(C(=O)CN1CCOCC1)c1ccc2sc3c(-c4cccc5c(=O)cc(N6CC7CCC(C6)O7)oc45)cccc3c2c1", "note": "[NU5455]", "values": [{"measurement": "inhibition at 1 µM", "result": 1.5, "unit": "%"}]}
